In patent US20200383327A1, “METHOD OF IMPROVING PLANT PERFORMANCE” (The State of Israel, Ministry of Agriculture & Rural …, priority 2018, published 2020):

Experiments:
Assay type in all cases: in vivo
Bemisia tabaci = test: Silver leaf whitefly incidence on tomato leaves; conditions: 4 mM Phe solution, drench or spray, each treatment; 30 days after treatment; FIG. 10
Procedure: FIG. 10 is a bar graph showing the effect of 4 mM Phe solution on the severity of silver leaf white fly (SLWF) on tomato plants. The Phe solution was applied by spraying and by drench on the tomato plants at 3 days before and 4 hours before incubation in the greenhouse. Incidence of SLWF was evaluated on a representative leaf 30 days after treatment.
The insect silver leaf whitefly Bemisia tabaci Gennadius (commonly also sweet potato whitefly) occurred naturally on the treated tomato plants. The plants were kept in a greenhouse with 18-28° C. Incidence of insect individuals' number on the 10th leaf of the tomato plants was counted.

[1] = Plant crop production (fruits)
Procedure: FIGS. 21A-21D are bar graphs showing the effects of 1-4 mM solution on plant crop production (e.g., fruits). Plants were treated with 2 mM once or twice, once with 4 mM or non-treated (control). (21A) is a graph showing the cumulative weight of fruits per plant. (21B) is a graph showing the number of fruits per plant. (21C) is a graph showing the average weight of a fruit. (21D) is a graph showing the number of young fruits, e.g., “set fruit”.

[2] = system: Tomato yellow leaf curl virus (TYLCV); test: Tomato yellow leaf curl virus severity on tomato plants; conditions: 4 mM Phe solution, spray and drench to root zone; AUDPC during 51 days; FIG. 13
Procedure: FIG. 13 is a bar graph showing the effect of 4 mM solution on the severity of Tomato yellow leaf curl virus (TYLCV) on leaves of tomato plants. The Phe solution was applied by spraying and by drench on the tomato plants at 3 days before and 4 hours before incubation in the greenhouse close to TYLCV infected tomato plants. Infection was natural by the vector insect silverleaf white fly. Disease severity was evaluated on a scale of 0-100% severity of symptoms coverage during 51 days after treatment and it is expressed as the area under disease progress curve (AUDPC).
The effect of Phe on TYLCV Begomovirus on tomato plants was assessed. Tomato yellow leaf curl virus (TYLCV) is a DNA virus from the genus Begomovirus. The virus is transmitted by an insect vector the whitefly Bemisia tabaci, (silverleaf whitefly; sweet potato whitefly from the family Aleyrodidae). Plants infected are tomato and also eggplant, potato, tobacco, bean, and pepper. Virus infection causes stunting, reduction of leaf size, upward cupping/curling of leaves, chlorosis on leaves and flowers, and reduction of fruit production.

Alternaria alternata = test: Postharvest decay of 'Ettinger' avocado fruit, wound inoculated; conditions: 4 mM phenylalanine, FIG. 5
Procedure: FIGS. 5A-5B are a graph and a photograph showing induced resistance of harvested Avocado fruit to fungal pathogens. FIG. […] A day after dipping the treated or untreated fruits were wound inoculated on four spots in each fruit with 7 μl of Alternaria alternata conidia suspension (10^6 conidia/ml) and the decay area was monitored for 6 days post inoculation (dpi). FIG. 5B is representative pictures of inoculated fruits of control and treatments with 4 mM phenylalanine, 6 days post inoculation.

[3] = Plant growth performance parameters after pre-harvest treatment
Procedure: FIGS. 20A-20I are images and graphs showing the effects of Phe solution on plant growth performance parameters. (20A) is images of plants treated with 2 mM once or twice, once with 4 mM or non-treated (control). (20B-20C) are bar graphs showing plant height (20B) and the % increase in the plant height (20C) in treated and control plants. (20D-20E) are bar graphs showing the number of nodes per plant (20D) and the % increase in the number of nodes (20E) in treated and control plants. (20F-20G) are bar graphs showing the % increase in leaf length (20F) and the % increase in the leaf area (20G) in treated and control plants. (20H-20I) are bar graphs showing plant fresh (e.g., “wet”) weight […] and plant dry weight (20I) in treated and control plants.
Plant were treated with Phe solution pre-harvest, and growth performance parameters, including total height, total weight (“wet” and dry), number of nodes, leaf length, and leaf area were examined.

Penicillium digitatum = test: Postharvest decay of 'Michal' clementine fruit sprayed with conidia; conditions: 4 mM phenylalanine, FIG. 6
Procedure: FIGS. 6A-6C are graphs and a photograph showing induced resistance of harvested clementine fruit to fungal pathogens. FIG. 6A is a vertical bar showing the % of decayed Clementine fruit (in a box) of the cultivar ‘Michal’ which were dipped for 30 seconds in 4 mM phenylalanine. After the fruits were dried, they were sprayed with conidia suspension of Penicillium digitatum (early infection), or alternatively the fruit was sprayed with conidia suspension two days after being dipped in phenylalanine (late infection). FIG. 6B is representative pictures of inoculated fruits of control and treatment with 4 mM phenylalanine, 5 days post inoculation. FIG. 6C is diagrams of taste evaluation of control fruit (upper panel) and phenylalanine treated fruit (lower panel) which include off-flavors (index 1-5), acidity (index 1-5), sweetness (index 1-5), and general taste (index 1-5).

Lasiodiplodia = test: Spots and pitting of infected mango fruits under 7° C.; conditions: post-harvest treated and infested mango
Procedure: (§1) FIGS. 19A-19G are images and graphs showing the effect of Phe solution on fruit post-harvest rotting under cold temperature resistance. (19A-19B) are images showing post-harvest control and treated mango fruits, respectively, stored in 7° C. […] (19C-19D) are vertical bar graphs showing indices of spots (19C) and pitting (19D) of mango fruits infected by Colletotrichum or Lasiodiplodia under 7° C. (19E-19G) are vertical bar graph showing […] decay was shown at 7° C., and side decay and total decay were shown at 7° C. and 10° C.
(§2) Mango fruits were treated with Phe solution post-harvest. Fruits were stored in either 7° C. or 10° C., and decay was inspected and documented. Post-harvest treatment as described hereinabove reduced stem decay, side decay, and total decay (FIGS. 19E-19G). […] Fruits were both treated with AAA and infested with […] post-harvest. […] (FIGS. 19C-19D).

Colletotrichum = test: as above; conditions: post-harvest treated and infested mango
Procedure: as §1, §2

## N[C@@H](Cc1ccccc1)C(=O)O [Phe, Phenylalanine]
Bemisia tabaci
  Incidence of the Bemisia tabaci silver leaf whitefly on tomato leaves: significantly suppressed
[1]; 4 mM-treated plants vs control, FIG. 21D
  Number of young fruits (set fruit): greater number of young fruits
[1]; Phe solution vs control
  Total crop yielded (fruits): significantly increased the total crop yielded
[1]; Phe treated vs control
  Cumulative fruit weight: significantly greater cumulative fruit weight
  Number of fruits: comparable amount
[1]; Phe treated vs control, FIG. 21C
  Average weight per fruit: significantly greater average weight per fruit
[2]
  Severity of Tomato yellow leaf curl virus on tomato plants canopy: significantly suppressed
Alternaria alternata
  Decay severity in comparison to the untreated control fruits: reduced the decay severity
[3]; 2 mM or 4 mM of Phe vs control, FIGS. 20A-20C
  Plant height: significantly higher than control
[3]; Phe treated vs control, FIG. 20H
  Final weight at harvest, total "wet" weight: significantly greater than control
[3]; Phe treated vs control, FIG. 20I
  Final weight at harvest, total dry biomass: significantly greater than control
[3]; Phe treated vs control, FIGS. 20D-20E
  Number of nodes on the plant's stem: increase in height was also correlated with the number of nodes
[3]; control compared to plants treated with 4 mM Phe
  Leaf length: control plants had significantly shorter leaves
[3]; control compared to plants treated with Phe, 2 mM or 4 mM once a week
  Leaf area: reduced leaf area compared to those of plants treated with Phe
Penicillium digitatum
  Decay severity in comparison to the untreated control fruits: reduced the decay severity
Lasiodiplodia; FIG. 19C
  Levels of black spots: substantially reduced levels
Lasiodiplodia; FIG. 19D
  Levels of pitting: substantially reduced levels
Colletotrichum; FIG. 19C
  Levels of black spots: substantially reduced levels
Colletotrichum; FIG. 19D
  Levels of pitting: substantially reduced levels
